According to patent US9359322B2, “C-linked glucuronide of N-(4-hydroxybenzyl) retinone, analogs thereof, and methods of using the same to inhibit neoplastic cell growth” (Wisconsin Alumni Research Foundation, priority 2005, dated 2016):
Marks after values point to notes of the source that are not given here.

What was measured:
[1] = tested on: MCF-7 human breast cancer cells; test: Growth inhibition of MCF-7 human breast cancer cells; assay type: cell-based; details: 10^−5 M, 8-day period; FIG. 5
Method: Inhibition of MCF-7 human breast cancer cell growth over an 8-day period was used as a means to assess the activity of 4-HBRCG and the analog 4-HBRCGlucose.
Growth inhibition of MCF-7 human breast cancer cells. MCF-7 cells were obtained from the American Type Culture Collection, Manassas, Va. They were maintained in DMEM medium supplemented with 4 g/L glucose, 3.7 g/L sodium bicarbonate and 10% heat-inactivated fetal calf serum. Cells were passaged into 12-well plates, cultured for 24 hours, after which time they were dosed with vehicle (0.2% ethanol) or retinoids; medium was changed and fresh vehicle or retinoids were added daily. Cells were harvested and the number of live cells was assessed using fluorescein diacetate, which yields a fluorescent product upon cleavage by metabolically active cells. Using fluorescent microscopy, at least 200 cells/well were counted with a hemacytometer.

[2] = Plasma triglyceride measurement; assay type: in vivo, rat; details: 2 mmol/kg diet, 22 days; FIG. 2A
Method: Plasma Triglyceride Measurement. Bloods were drawn from anesthetized animals in the presence of EDTA as an anticoagulant, and the resulting plasma was used for the measurement of plasma “true” triglyceride levels using a kit from Sigma-Aldrich (Saint Louis, Mo.). Briefly, the total plasma triglyceride and glycerol concentrations were determined, and the glycerol component was subtracted from the total plasma triglyceride measurement to obtain the “true” serum triglyceride concentration.

RARγ = target: T1, RARγ (Homo sapiens, UniProt P13631); test: Nuclear retinoid receptor binding assay, competition with [3H]all-trans RA; details: competition for [3H]atRA; present work
T1 sequence (P13631 1-454): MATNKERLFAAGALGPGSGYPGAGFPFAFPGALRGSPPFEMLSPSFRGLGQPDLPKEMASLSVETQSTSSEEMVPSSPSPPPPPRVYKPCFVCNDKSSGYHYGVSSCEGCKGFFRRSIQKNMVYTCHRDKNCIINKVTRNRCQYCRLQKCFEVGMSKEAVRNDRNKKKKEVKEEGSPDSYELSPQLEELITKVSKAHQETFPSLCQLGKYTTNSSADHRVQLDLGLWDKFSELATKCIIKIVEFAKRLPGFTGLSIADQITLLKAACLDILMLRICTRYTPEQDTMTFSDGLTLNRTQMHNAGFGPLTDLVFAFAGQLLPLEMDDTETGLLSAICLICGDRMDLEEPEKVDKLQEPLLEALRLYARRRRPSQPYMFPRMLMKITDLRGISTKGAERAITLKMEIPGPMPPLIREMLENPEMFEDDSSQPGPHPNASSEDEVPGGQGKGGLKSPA
Method: Nuclear Retinoid Receptor Binding Assay. Competition of 3 and 7 and 4-HBRCGlucose with [^3H]-all-trans-RA (4.2-4.6 nM) for binding to RARβ and RARγ and with [^3H]-9-cis RA (1.9 nM) for binding to RXRγ was determined using an in vitro ligand binding assay.^41, 42 [^3H]-all-trans-RA (40.5 Ci/mmole) or [^3H]-9-cis-RA (69.4 Ci/mmole) was added to receptor-containing extracts in the absence and presence of increasing concentrations of competing ligands at 4° C. for 3 hr. A hydroxylapatite (HAP) assay was used to separate ligand bound to receptor from that free in solution, and the radioactivity associated with the HAP pellet was measured by scintillation counting.

[3] = Femur bone mineral content; assay type: in vivo, rat; details: end of feeding study; FIG. 2B
From the text: Bone Mineral Content. The femur was disarticulated from the leg, and the adhering soft tissue was removed by dissection. Femurs were scanned using the Lunar PIXImus 2 system (Model X2608, General Electric using the LUNAR software version 1.45), and control measurements were made using the small animal quality control phantom. Femurs were scanned 5 times each with re-positioning at each measure. The average value of the bone mineral content (BMC) in grams for each animal is reported as one independent measure.

[4] = tested on: DMBA-induced rat mammary tumor; test: DMBA-induced rat mammary tumor model, retinoid-containing diets; assay type: in vivo
Method: Preliminary evaluation of the mammary tumor chemotherapeutic activity of 4-HBRCG (7) was conducted, and its toxicity profile was also assessed. As previously described,^7, 12 tumor-bearing female rats (treated ca. 50 days earlier with 7,12-dimethylbenz(a)anthracene [DMBA]) were fed the control or retinoid-containing diets (RA (2), 4-HPR (3) or 4-HBRCG (7)) at 2 mmole/kg diet for 22 days.
Animal Studies: Mammary tumors were induced by intragastric intubation of 50-day old female Sprague-Dawley rats (Harlan Industries, Indianapolis, Ind.) with a single dose of 15 mg DMBA in 1.0 ml of sesame oil per rat. The rats were then maintained on a powdered Teklad 22/5 rodent chow diet (W) 8640 (Harlan Industries, Indianapolis, Ind.), and allowed food and water ad libitum. Four months later, rats which had developed palpable tumors were randomly assigned to the experimental groups (4 rats/group). The retinoid-treated groups were fed diets supplemented with 2 mmol/kg diet of atRA, 4-HPR, or 4-HBRCG, respectively. The retinoids were added to the diet in a vehicle consisting of 25 ml of ethanol: tricaprylin (1:4 v/v) plus 2% (w/v) of α-tocopherol as previously described.^9 This vehicle was also added to the control diet. The additives were blended into the chow diets using a Hobart food mixer. The diets were fed in stainless steel feeders designed with food hoppers. The food was replaced weekly with freshly prepared diets. Food consumption was determined once weekly, and from that the average daily consumption/rat was estimated. These diets were continuously fed for 22 days. Animals were also weighted weekly and monitored for general health status and signs of possible toxicity due to treatment.
Baseline measurement of initial tumor sizes, numbers and rat body weights were determined immediately before commencement of treatments, and final measurements were recorded just prior to sacrifice of the animals. Animals were palpated for tumors twice weekly and tumor diameters were measured weekly by a micrometer caliper. Tumor volumes were calculated using the formula [V= 4/3 πr^3] where r is one-half the mean of the sum of the largest diameter and the axis at right angle to it. All tumors as well as lungs, liver, kidney and femur were excised at the end of the experiment for chemical and histopathological evaluation. Blood samples were also taken from each animal for determination of plasma retinol and triglyceride levels.

[5] = number of individual tumors, 2 mmol/kg diet, 22 days

CC1=C(/C=C/C(C)=C/C=C/C(C)=C/C(=O)Cc2ccc(CC3OC(C(=O)O)C(O)C(O)C3O)cc2)C(C)(C)CCC1 [4-HBRCG (7), 2,6-Anhydro-7-deoxy-7-[4-(retinoylmethyl)-phenyl]-L-glycero-L-gulo-heptinoic acid]
Effect on number of live MCF-7 cells [1]: reduction in the number of live cells
Effect on serum triglyceride concentration [2]: did not cause this undesirable effect
Times less potent than atRA in binding to RARγ (RARγ): 1400 times
Effect on femur bone mineral content vs control [3]: showed no such effect
% Change in tumor volume from baseline ([4]; 2 mmol/kg diet for 22 days): −33 ^d %
Final tumor volume ([4]; 2 mmol/kg diet for 22 days, mean ± SEM): 0.08 ± 0.05 cm^3
Initial tumor volumes ([4]; baseline before treatment, mean ± SEM): 0.12 ± 0.06 cm^3
Complete regression (tumors that totally disappeared) [4, 5]: 2
No effect [4, 5]: 2
Partial regression (tumors with 25-75% decrease in volume) [4, 5]: 6
New tumors ([4]; number of tumors, 2 mmol/kg diet, 22 days): 0
